Reference: patent US7635716B2, “Substituted cyclopentanes or cyclopentanones as therapeutic agents” (Allergan, Inc., priority 2005, dated 2009)
pEC50, pKi: −log10 of the molar value. Read-outs that look alike come from different tables or passages of the source.

Columns and labels:
hEP2/Gqs5 = molecular target: T1, hEP2/Gqs5 (Homo sapiens, UniProt P43116); assay: FLIPR calcium signal, HEK-293(EBNA) cells; format: cell-based
T1 construct: expressed in transfected cells; host or cells: HEK-293(EBNA) cells
Summary of the method: (§1)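 Peak Fluo-4 fluorescence (2 µM dye loading, 45 min) was recorded in HEK-293(EBNA) cells stably expressing each human receptor, in HBSS-HEPES pH 7.4 at 37 °C. Signals were expressed relative to buffer and standard agonist controls: PGE2 (EP2, EP4), PGF2 (FP), carbacyclin (IP). Compounds were tested at 10^−5 M or from 10^−5 to 10^−11 M, in duplicate, n≧3.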

hEP4/Gqs5 = molecular target: T2, hEP4/Gqs5 (Homo sapiens, UniProt P35408); assay: FLIPR calcium signal, HEK-293(EBNA) cells; format: cell-based
T2 construct: expressed in transfected cells; host or cells: HEK-293(EBNA) cells
Summary of the method: as §1

hEP2 = hEP2 (Homo sapiens, UniProt P43116); assay: Competition binding, [3H]PGE2, HEK 293 cells stably expressing human EP2 receptors; set-up: expressed in transfected cells; host or cells: HEK 293 cells (membranes or whole cells)
Description: Competition binding experiments were performed in a medium containing Hank's balanced salt solution, Hepes 20 mM, pH 7.3, membranes (˜60 μg protein) or 2×10^5 cells from HEK 293 cells stably expressing human EP2 receptors, [^3H]PGE2 (10 nM) and various concentrations of test compounds in a total volume of 300 μL. Reaction mixtures were incubated at 23° C. for 60 min, and were filtered over Whatman GF/B filters under vacuum. Filters were washed three times with 5 ml ice-cold buffer containing 50 mM Tris/HCl (pH 7.3). Non-specific binding was estimated in the presence of excess unlabeled PGE2 (10 μM). Binding data fitted to the binding model for a single class of binding sites, using nonlinear regression analysis. IC50 values thus obtained were converted to Ki using the equation of Ki=(IC50/(1+[L]/KD) where [L] represents PGE2 concentration (10 nM) and KD the dissociation constant for [^3H]PGE2 at human EP2 receptors (40 nM).
(§2) HEK-293 cells stably expressing the human or feline FP receptor, or EP1, EP2, or EP4 receptors were washed with TME buffer, scraped from the bottom of the flasks, and homogenized for 30 sec using a Brinkman PT 10/35 polytron. TME buffer was added to achieve a final 40 ml volume in the centrifuge tubes (the composition of TME is 100 mM TRIS base, 20 mM MgCl2, […]; 10N HCl is added to achieve a pH of 7.4).
(§3) The cell homogenate was centrifuged at 19000 r.p.m. for 20 min at 4° C. using a Beckman Ti-60 rotor. The resultant pellet was resuspended in TME buffer to give a final 1 mg/ml protein concentration, as determined by Biorad assay. Radioligand binding competition assays vs. [^3H—]17 phenyl PGF2. (5 nM) were performed in a 100 μl volume for 60 min. Binding reactions were started by adding plasma membrane fraction. The reaction was terminated by the addition of 4 ml ice-cold TRIS-HCl buffer and rapid filtration through glass fiber GF/B filters using a Brandel cell harvester. The filters were washed 3 times with ice-cold buffer and oven dried for one hour.
(§4) [^3H—] PGE2 (specific activity 180 Ci mmol) was used as the radioligand for EP receptors. [^3H] 17-phenyl PGF2α was employed for FP receptor binding studies. Binding studies employing EP1, EP2, EP4 and FP receptors were performed in duplicate in at least three separate experiments. A 200 μl assay volume was used. Incubations were for 60 min at 25° C. and were terminated by the addition of 4 ml of ice-cold 50 mM TRIS-HCl, followed by rapid filtration through Whatman GF/B filters and three additional 4 ml washes in a cell harvester (Brandel). Competition studies were performed using a final concentration of 5 nM [^3H]-PGE2, or 5 nM [^3H] 17-phenyl PGF2α and non-specific binding determined with 10^−5M of unlabeled PGE2, or 17-phenyl PGF2α, according to receptor subtype studied.

hEP4 = molecular target: T3, hEP4 (Homo sapiens, UniProt P35408); assay: Radioligand binding, [3H]PGE2, HEK-293 cells stably expressing EP4 receptors
T3 construct: expressed in transfected cells; host or cells: HEK-293 cells (plasma membrane fraction)
Description: as §2, §3
as §4, with “Binding studies employing EP1, EP2, EP4 and FP receptors were performed in duplicate in at least three separate experiments.” left out

[1] = Table 1, first part, triplicate, read-out: functional data (EC50) hEP2
[2] = Table 1, first part, triplicate, read-out: functional data (EC50) hEP4
[3] = Table 1, first part, triplicate, read-out: binding data (Ki) hEP2
[4] = Table 1, first part, triplicate, read-out: binding data (Ki) hEP4
[5] = Table 1, second part, read-out: hEP4 Ki
[6] = Table 1, second part, read-out: hEP2 flipr EC50
[7] = Table 1, second part, read-out: hEP4 flipr EC50
[8] = Table 1, second part, read-out: hEP2 Ki

T2 sequence (P35408 whole entry): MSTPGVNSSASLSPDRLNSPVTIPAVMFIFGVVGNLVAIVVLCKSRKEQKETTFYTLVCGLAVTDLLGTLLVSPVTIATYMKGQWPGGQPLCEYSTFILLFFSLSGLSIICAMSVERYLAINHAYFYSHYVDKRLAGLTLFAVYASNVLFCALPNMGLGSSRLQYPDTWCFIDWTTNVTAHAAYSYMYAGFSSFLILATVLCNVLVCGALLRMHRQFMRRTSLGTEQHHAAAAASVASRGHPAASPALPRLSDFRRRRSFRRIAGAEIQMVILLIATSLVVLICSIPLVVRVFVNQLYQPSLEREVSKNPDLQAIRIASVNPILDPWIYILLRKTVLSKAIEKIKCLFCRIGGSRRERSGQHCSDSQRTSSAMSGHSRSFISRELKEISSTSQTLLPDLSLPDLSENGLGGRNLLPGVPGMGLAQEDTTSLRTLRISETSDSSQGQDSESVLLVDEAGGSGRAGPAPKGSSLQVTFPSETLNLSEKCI
T3 sequence (P35408 whole entry): as above
Sequence of hEP2 (P43116 whole entry): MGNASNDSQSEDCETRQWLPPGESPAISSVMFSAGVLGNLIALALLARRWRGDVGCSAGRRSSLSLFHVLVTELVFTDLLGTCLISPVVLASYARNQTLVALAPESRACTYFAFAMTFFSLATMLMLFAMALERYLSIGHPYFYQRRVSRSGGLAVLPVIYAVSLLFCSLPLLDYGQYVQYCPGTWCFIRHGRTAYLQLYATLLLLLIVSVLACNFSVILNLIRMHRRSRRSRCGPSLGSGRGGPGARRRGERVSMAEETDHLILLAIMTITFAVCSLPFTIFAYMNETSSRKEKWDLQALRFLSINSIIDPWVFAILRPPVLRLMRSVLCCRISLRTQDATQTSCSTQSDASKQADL
T1 sequence (P43116 whole entry): as above

Row | Molecule | pEC50 (hEP2/Gqs5; [1]) | pEC50 (hEP4/Gqs5; [2]) | pKi (hEP2; [3]) | pKi (hEP4; [4]) | pKi (hEP4; [5]) | pEC50 (hEP2/Gqs5; [6]) | pEC50 (hEP4/Gqs5; [7]) | pKi (hEP2; [8])
1 | (Z)-7-((1R,5S)-2-Oxo-5-phenoxymethyl-cyclopent-3-enyl)-hept-5-enoic acid [Example 3] | < 5.00 | 6.44 | < 5.00 | < 5.00 | < 5.00 | 5.29 | < 5.00 | 4.87
2 | O=C(O)CCC/C=C\C[C@@H]1[C@@H](COc2ccccc2)[C@H](O)C[C@H]1Cl [Example 8, (Z)-7-((1R,2S,3R,5R)-5-Chloro-3-hydroxy-2-phenoxymethyl-cyclopentyl)-hept-5-enoic acid] | 6.64 | 5.49 | 5.90 | < 5.00 | < 5.00 | – | – | –
3 | O=C(O)CCCCCC[C@H]1C(=O)CC[C@@H]1COc1ccccc1 [Example 6, 7-((1R,5S)-2-Oxo-5-phenoxymethyl-cyclopentyl)-heptanoic acid] | 6.14 | 5.10 | 5.20 | 5.58 | – | – | – | –
4 | (Z)-7-((1R,2S,3R)-3-Hydroxy-5-oxo-2-phenoxymethyl-cyclopentyl)-hept-5-enoic acid [Example 4] | 5.29 | < 5.00 | 4.87 | < 5.00 | < 5.00 | < 5.00 | 6.44 | < 5.00

Stronger by pEC50 (hEP2/Gqs5; [1]), values ahead:

Row | pEC50 (hEP2/Gqs5; [1]) | pEC50 (hEP4/Gqs5; [2]) | pKi (hEP2; [3]) | pKi (hEP4; [4]) | pKi (hEP4; [5]) | pEC50 (hEP2/Gqs5; [6]) | pEC50 (hEP4/Gqs5; [7]) | pKi (hEP2; [8]) | Molecule
5 | 7.62 | 6.82 | 7.12 | 5.52 | – | – | – | – | O=C(O)CCCCCC[C@@H]1[C@@H](COc2cc(Cl)cc(Cl)c2)[C@H](O)C[C@H]1Cl [Example 14, 7-[(1R,2S,3R,5R)-5-Chloro-2-(3,5-dichloro-phenoxymethyl)-3-hydroxy-cyclopentyl]-heptanoic acid]
6 | 6.91 | 5.14 | 5.77 | < 5.00 | < 5.00 | – | – | – | O=C(O)CCCCCC[C@@H]1[C@@H](COc2ccccc2)[C@H](O)C[C@H]1Cl [Example 10, 7-((1R,2S,3R,5R)-5-Chloro-3-hydroxy-2-phenoxymethyl-cyclopentyl)-heptanoic acid]
7 | 9.10 | 7.32 | 7.92 | 6.03 | 6.03 | 9.10 | 7.32 | 7.92 | O=C(O)CCC/C=C\C[C@@H]1[C@@H](COc2cc(Cl)cc(Cl)c2)[C@H](O)C[C@H]1Cl [Example 12, (Z)-7-[(1R,2S,3R,5R)-5-Chloro-2-(3,5-dichloro-phenoxymethyl)-3-hydroxy-cyclopentyl]-hept-5-enoic acid]
